In the NIST ThermoML archive (doi:10.1021/je200963q) one finds viscosity and mass density data, which are given here for 1 molecule.

± gives the expanded uncertainty stated by the source.

The data set in a line: wn = mass fraction of the nth substance listed. The settings on record: 303.15 K, 101.3 kPa, Liquid, w1 = 0.08.

On to `CCCCOCCOCCO` [3,6-dioxa-1-decanol] + O, for which the mass density – broadly, mass per unit of volume – was 996.7 ± 0.4 kg/m3. Further, the viscosity (commonly the internal friction of a fluid under shear) (Capillary tube (Ostwald / Ubbelohde) method) is 1.069 ± 0.009 mPa·s.
